# Earlier results, collected in patent US20220211725A1, “Pharmaceutical Composition Comprising Venetoclax” (Alembic Pharmaceuticals Limited, priority 2019, published 2022).
# Conditions: background description
smiles,measurement,value
CC1(C)CCC(CN2CCN(c3ccc(C(=O)NS(=O)(=O)c4ccc(NCC5CCOCC5)c([N+](=O)[O-])c4)c(Oc4cnc5[nH]ccc5c4)c3)CC2)=C(c2ccc(Cl)cc2)C1 [Venetoclax],aqueous solubility,very low
